In patent publication US6924268B2, “Method for inactivating gonadotrophs” (Colorado State University Research Foundation, priority 1989, dated 2005):

Legend:
[1] = tested on: ovine pituitary cells; experiment: LH synthesis by ovine pituitary cells in suspension culture; type: cell-based; settings: cells incubated with treatment for 16 hours; LH synthesis during 24 hour culture after removal
Description: In addition, the conjugation procedure reduces the toxicity of the pokeweed antiviral protein by 99.5 in a cell-free translation system. […] The activity of this conjugate was also tested in a pituitary cell culture system. In this system, pituitary cells were incubated with the sterilization agent conjugated to [D-Lys^6, des-Gly^10]-GnRH-ethylamide for 16 hours. After incubation, the sterilization agents were removed from the incubation media by extensive washing and the cells were then cultured for an additional 24 hours. The increase in total LH, i.e., that present in the media plus that in the cells during the 24 hour period, represents the ability of the treated cells to synthesize LH. […]
The effect of these compounds on ovine pituitary cells in suspension culture was measured. […] After pretreatment, the cells were washed 6 times, counted, and small aliquots removed for testing. […] 3 ml of cold Gel-PBS was added to each tube, cells were centrifuged, and the media was measured for LH content. The four pretreatment groups were evaluated for their ability to synthesize and secrete LH immediately after treatment and after the 24 hour recovery period.

[2] = tested on: ovine pituitary cells; experiment: Total culture LH after exposure to GnRH and toxin conjugates with or without lysosomal agents; type: cell-based; settings: 24 hour exposure, wash, further 24 hour culture in standard media
Description: Applicants then tested the more promising Barley-2IT-[D-Lys^6, desGly^10]-GnRH-ethylamide conjugate in similar assay systems. […] Ovine pituitary cells were again placed in culture with various agents and the total LH in the cells and media determined after a 24 hour exposure, wash, and further 24 hour culture in standard media.

[3] = tested on: GnRH induced secretion of LH; experiment: GnRH induced secretion of LH in ovariectomized female rats; type: in vivo; settings: single injection; ovariectomized female rat
Description: Applicants also tested these compounds using an in vivo model. The test system initially chosen was the ovariectomized female rat. […] During week 2, release of LH was reduced by 50% in the GnRH-A treated group (controls), but by >90% in the GnRH-A-T group. […] It might however be the basis for a temporary sterilization. Based upon this finding, a second experiment was conducted to examine the effect of 4 injections of a pokeweed antiviral sterilization conjugate at 3-day intervals on the ability of ovariectomized rats to release LH.
Applicants also tested the PAP-carbodiimide-[D-Lys^6, desGly^10]-GnRH-ethylamide conjugate in ovariectomized female rats.
FIG. 1B indicates the results of a challenge by one of applicants' compounds to ovariectomized rats. […] The open space above the bars indicates the amount of LH released in response to a GnRH challenge. The challenges were administered on the first day of treatment and again 4 weeks later.

gonadotropin-releasing hormone (QHWSYGLRPG; Gonadoliberin-1; UniProt P01148 24-33, looked up) [GnRH, native decapeptide hormone]
SYNTHESIS of LH [1]: 545.5 ng per 5 × 10^6 cells

pyroGlu-His-Trp-Ser-Tyr-D-Lys-Leu-Arg-Pro-ethylamide [[D-Lys^6, des-Gly^10]-GnRH-ethylamide]
Total LH [2]: 1.62 Ng/10^5 cells in Culture
reduction of release of LH, week 2 [3]: 50%
